Test results published in US8551937B2, “Peptide having an extending action for half-life of object peptide in plasma” (priority 2008, dated 2013).
Where a SMILES comes first, the peptide text is derived from it. Bridges are numbered along the chain shown (N, C = ends).

How the values were obtained:
in vivo = settings: male, SD, rat, iv, 10 nmol/kg
Description: The experiment was carried out using rats into which polyethylene tube (PE-50 manufactured by Clay Adams) was previously inserted into thigh artery under an anesthetized condition with Nembutal. As to a test system, male SD strain rats (Nippon Charles River) of 7 weeks age were used where one group comprised 3 rats. Native CNP-22 or chimeric CNP in a dose of 10 nmol/kg was administered into tail vein of the rat and the blood before the administration and until 60 minutes after the administration was collected by a polyethylene tube inserted into the thigh artery. To the collected blood were added EDTA (manufactured by Dojin Laboratories) and aprotinin (manufactured by Bayer) as a stabilizer and an anti-coagulant, respectively and the plasma was separated therefrom by centrifugal separation. CNP immunoreactivity concentration in plasma was measured by a competitive radioimmunoassay (RIA). At that time, a rabbit polyclonal antibody (#2) which specifically recognizes the ring partial structure of the native CNP-22 was used as an antibody and, as a labeled compound, ^125I-[Tyr^0] CNP was used.

[1] = Motilin immunoreactivity concentration in plasma, half-life after intravenous administration (Example 6); type: in vivo, rat; settings: for half-life: SD, rat, plasma, 10 nmol/kg, male rats, N = 3, read-out: T½ Mean Value; for disappearance half-time extending action in vivo compared with native motilin: rats
Description: The experiment was carried out using rats into which polyethylene tube (PE-50 manufactured by Clay Adams) was previously inserted into thigh artery under an anesthetized condition with Nembutal. As to a test system, male SD strain rats (Nippon Charles River) of 7 weeks age were used where one group comprised 3 rats. Human type motilin or a derivative thereof in a dose of 10 nmol/kg was administered into tail vein of the rat and the blood before the administration and until 60 minutes after the administration was collected by a polyethylene tube inserted into the thigh artery. To the collected blood were added EDTA (manufactured by Dojin Laboratories) and aprotinin (manufactured by Bayer) as a stabilizer and an anti-coagulant, respectively and the plasma was separated therefrom by centrifugal separation.

[2] = Motilin immunoreactivity concentration in plasma, half-life after intravenous administration (Example 8); settings: SD, rat, in vivo, 10 nmol/kg
Procedure, shortened: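 Male SD rats (7 weeks, n=3/group) received human motilin or derivative at 10 nmol/kg i.v. via tail vein; arterial blood was sampled up to 60 min, with EDTA and aprotinin added. Plasma motilin immunoreactivity was measured by competitive RIA using a rabbit polyclonal antibody against native motilin residues 1–12 and ^125I-[Tyr^7] human motilin tracer.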

| SMILES | half-life [1] | also measured |
| --- | --- | --- |
| CC[C@H](C)[C@@H]1NC(=O)[C@H](CCCNC(=N)N)NC(=O)[C@H](CC(=O)O)NC(=O)[C@H](CC(C)C)NC(=O)[C@H](CCCCN)NC(=O)[C@H](CC(C)C)NC(=O)CNC(=O)[C@H](Cc2ccccc2)NC(=O)[C@@H](N)CSSC[C@@H](C(=O)N[C@H](C(=O)N[C@@H](CCC(N)=O)C(=O)N[C@@H](CCC(N)=O)C(=O)N[C@@H](CCCNC(=N)N)C(=O)N[C@@H](CCCCN)C(=O)N[C@@H](CCC(=O)O)C(=O)N[C@@H](CO)C(=O)N[C@@H](CCCCN)C(=O)N[C@@H](CCCCN)C(=O)N2CCC[C@H]2C(=O)N2CCC[C@H]2C(=O)N[C@@H](C)C(=O)N[C@@H](CCCCN)C(=O)N[C@@H](CC(C)C)C(=O)N[C@@H](CCC(N)=O)C(=O)N2CCC[C@H]2C(=O)N[C@@H](CCCNC(=N)N)C(=O)O)C(C)C)NC(=O)CNC(=O)[C@H](CC(C)C)NC(=O)CNC(=O)[C@H](CO)NC(=O)[C@H](CCSC)NC(=O)[C@H](CO)NC(=O)CNC1=O [Chimeric CNP (C)] (H-CFGLKLDRIGSMSGLGCVQQRKESKKPPAKLQPR-OH; disulfide 1-17; N-terminus and C-terminus assumed) |  | half-life (in vivo): 15 min |
| CC[C@H](C)[C@@H]1NC(=O)[C@H](CCCNC(=N)N)NC(=O)[C@H](CC(=O)O)NC(=O)[C@H](CC(C)C)NC(=O)[C@H](CCCCN)NC(=O)[C@H](CC(C)C)NC(=O)CNC(=O)[C@H](Cc2ccccc2)NC(=O)[C@@H](NC(=O)[C@H](CCCNC(=N)N)NC(=O)[C@@H]2CCCN2C(=O)[C@H](CCC(N)=O)NC(=O)[C@H](CC(C)C)NC(=O)[C@H](CCCCN)NC(=O)[C@H](C)NC(=O)[C@@H]2CCCN2C(=O)[C@@H]2CCCN2C(=O)[C@H](CCCCN)NC(=O)[C@H](CCCCN)NC(=O)[C@H](CO)NC(=O)[C@H](CCC(=O)O)NC(=O)[C@H](CCCCN)NC(=O)[C@H](CCCNC(=N)N)NC(=O)[C@H](CCC(N)=O)NC(=O)[C@H](CCC(N)=O)NC(=O)[C@@H](N)C(C)C)CSSC[C@@H](C(=O)O)NC(=O)CNC(=O)[C@H](CC(C)C)NC(=O)CNC(=O)[C@H](CO)NC(=O)[C@H](CCSC)NC(=O)[C@H](CO)NC(=O)CNC1=O [Chimeric CNP (G)] (H-VQQRKESKKPPAKLQPRCFGLKLDRIGSMSGLGC-OH; disulfide 18-34; N-terminus and C-terminus assumed) |  | half-life (in vivo): 17.8 min |
| CC[C@H](C)[C@H](NC(=O)[C@@H]1CCCN1C(=O)[C@@H](NC(=O)[C@@H](N)Cc1ccccc1)C(C)C)C(=O)N[C@@H](Cc1ccccc1)C(=O)N[C@H](C(=O)N[C@@H](Cc1ccc(O)cc1)C(=O)NCC(=O)N[C@@H](CCC(=O)O)C(=O)N[C@@H](CC(C)C)C(=O)N[C@@H](CCC(N)=O)C(=O)N[C@@H](CCCNC(=N)N)C(=O)N[C@H](C(=O)N[C@@H](CCC(N)=O)C(=O)N[C@@H](CCC(N)=O)C(=O)N[C@@H](CCCNC(=N)N)C(=O)N[C@@H](CCCCN)C(=O)N[C@@H](CCC(=O)O)C(=O)N[C@@H](CO)C(=O)N[C@@H](CCCCN)C(=O)N[C@@H](CCCCN)C(=O)N1CCC[C@H]1C(=O)N1CCC[C@H]1C(=O)N[C@@H](C)C(=O)N[C@@H](CCCCN)C(=O)N[C@@H](CC(C)C)C(=O)N[C@@H](CCC(N)=O)C(=O)N1CCC[C@H]1C(=O)N[C@@H](CCCNC(=N)N)C(=O)O)C(C)C)[C@@H](C)O [Chimeric motilin (D)] (H-FVPIFTYGELQRVQQRKESKKPPAKLQPR-OH; N-terminus and C-terminus assumed) | 8.9 min | half-life ([2]; male, iv): 8.9 min |
| CC[C@H](C)[C@H](NC(=O)[C@@H]1CCCN1C(=O)[C@@H](NC(=O)[C@@H](N)Cc1ccccc1)C(C)C)C(=O)N[C@@H](Cc1ccccc1)C(=O)N[C@H](C(=O)N[C@@H](Cc1ccc(O)cc1)C(=O)NCC(=O)N[C@@H](CCC(=O)O)C(=O)N[C@@H](CC(C)C)C(=O)N[C@@H](CCC(N)=O)C(=O)N[C@@H](CCCNC(=N)N)C(=O)N[C@@H](CCSC)C(=O)N[C@@H](CCC(N)=O)C(=O)N[C@@H](CCC(=O)O)C(=O)N[C@@H](CCCCN)C(=O)N[C@@H](CCC(=O)O)C(=O)N[C@@H](CCCNC(=N)N)C(=O)N[C@@H](CC(N)=O)C(=O)N[C@@H](CCCCN)C(=O)NCC(=O)N[C@@H](CCC(N)=O)C(=O)O)[C@@H](C)O [Native Motilin, reference compound] | 3.26 min | half-life ([2]; intravenous, male rats, N = 3, read-out: T½ Mean Value): 3.26 min |

Further lines, with some results ahead:

| half-life [1] | SMILES | also measured |
| --- | --- | --- |
| 5.76 min | CC[C@H](C)[C@H](NC(=O)[C@@H]1CCCN1C(=O)[C@@H](NC(=O)[C@@H](N)Cc1ccccc1)C(C)C)C(=O)N[C@@H](Cc1ccccc1)C(=O)N[C@H](C(=O)N[C@@H](Cc1ccc(O)cc1)C(=O)NCC(=O)N[C@@H](CCC(=O)O)C(=O)N[C@@H](CC(C)C)C(=O)N[C@@H](CCC(N)=O)C(=O)N[C@@H](CCCNC(=N)N)C(=O)N[C@H](C(=O)N[C@@H](CCC(N)=O)C(=O)N[C@@H](CCC(N)=O)C(=O)N[C@@H](CCCNC(=N)N)C(=O)N[C@@H](CCCCN)C(=O)N[C@@H](CCC(=O)O)C(=O)N[C@@H](CO)C(=O)N[C@@H](CCCCN)C(=O)N[C@@H](CCCCN)C(=O)N1CCC[C@H]1C(=O)N1CCC[C@H]1C(=O)N[C@@H](C)C(=O)N[C@@H](CCCCN)C(=O)O)C(C)C)[C@@H](C)O [Chimeric motilin (I)] (H-FVPIFTYGELQRVQQRKESKKPPAK-OH; N-terminus and C-terminus assumed) |  |
| 6.34 min | CC[C@H](C)[C@H](NC(=O)[C@@H]1CCCN1C(=O)[C@@H](NC(=O)[C@@H](N)Cc1ccccc1)C(C)C)C(=O)N[C@@H](Cc1ccccc1)C(=O)N[C@H](C(=O)N[C@@H](Cc1ccc(O)cc1)C(=O)NCC(=O)N[C@@H](CCC(=O)O)C(=O)N[C@@H](CC(C)C)C(=O)N[C@@H](CCC(N)=O)C(=O)N[C@@H](CCCNC(=N)N)C(=O)N[C@H](C(=O)N[C@@H](CCC(N)=O)C(=O)N[C@@H](CCC(N)=O)C(=O)N[C@@H](CCCNC(=N)N)C(=O)N[C@@H](CCCCN)C(=O)N[C@@H](CCC(=O)O)C(=O)N[C@@H](CO)C(=O)N[C@@H](CCCCN)C(=O)N[C@@H](CCCCN)C(=O)N1CCC[C@H]1C(=O)N1CCC[C@H]1C(=O)O)C(C)C)[C@@H](C)O [Chimeric motilin (J)] (H-FVPIFTYGELQRVQQRKESKKPP-OH; N-terminus and C-terminus assumed) |  |
| 6.14 min | CC[C@H](C)[C@H](NC(=O)[C@@H]1CCCN1C(=O)[C@@H](NC(=O)[C@@H](N)Cc1ccccc1)C(C)C)C(=O)N[C@@H](Cc1ccccc1)C(=O)N[C@H](C(=O)N[C@@H](Cc1ccc(O)cc1)C(=O)NCC(=O)N[C@@H](CCC(=O)O)C(=O)N[C@@H](CC(C)C)C(=O)N[C@@H](CCC(N)=O)C(=O)N[C@@H](CCCNC(=N)N)C(=O)N[C@H](C(=O)N[C@@H](CCC(N)=O)C(=O)N[C@@H](CCC(N)=O)C(=O)N[C@@H](CCCNC(=N)N)C(=O)N[C@@H](CCCCN)C(=O)N[C@@H](CCC(=O)O)C(=O)N[C@@H](CO)C(=O)N[C@@H](CCCCN)C(=O)N[C@@H](CCCCN)C(=O)O)C(C)C)[C@@H](C)O [Chimeric motilin (K)] (H-FVPIFTYGELQRVQQRKESKK-OH; N-terminus and C-terminus assumed) |  |
| 4.89 min | CC[C@H](C)[C@H](NC(=O)[C@@H]1CCCN1C(=O)[C@@H](NC(=O)[C@@H](N)Cc1ccccc1)C(C)C)C(=O)N[C@@H](Cc1ccccc1)C(=O)N[C@H](C(=O)N[C@@H](Cc1ccc(O)cc1)C(=O)NCC(=O)N[C@@H](CCC(=O)O)C(=O)N[C@@H](CC(C)C)C(=O)N[C@@H](CCC(N)=O)C(=O)N[C@@H](CCCNC(=N)N)C(=O)N[C@H](C(=O)N[C@@H](CCC(N)=O)C(=O)N[C@@H](CCC(N)=O)C(=O)N[C@@H](CCCNC(=N)N)C(=O)N[C@@H](CCCCN)C(=O)N[C@@H](CCC(=O)O)C(=O)N[C@@H](CO)C(=O)O)C(C)C)[C@@H](C)O [Chimeric motilin (L), FVPIFTYGELQRVQQRKES] (H-FVPIFTYGELQRVQQRKES-OH; N-terminus and C-terminus assumed) | disappearance half-time extending action in vivo compared with native motilin [1]: unable to be confirmed |
| 2.39 min | CC[C@H](C)[C@H](NC(=O)[C@@H]1CCCN1C(=O)[C@@H](NC(=O)[C@@H](N)Cc1ccccc1)C(C)C)C(=O)N[C@@H](Cc1ccccc1)C(=O)N[C@H](C(=O)N[C@@H](Cc1ccc(O)cc1)C(=O)NCC(=O)N[C@@H](CCC(=O)O)C(=O)N[C@@H](CC(C)C)C(=O)N[C@@H](CCC(N)=O)C(=O)N[C@@H](CCCNC(=N)N)C(=O)N[C@H](C(=O)N[C@@H](CCC(N)=O)C(=O)N[C@@H](CCC(N)=O)C(=O)N[C@@H](CCCNC(=N)N)C(=O)N[C@@H](CCCCN)C(=O)O)C(C)C)[C@@H](C)O [Chimeric motilin (M), FVPIFTYGELQRVQQRK] (H-FVPIFTYGELQRVQQRK-OH; N-terminus and C-terminus assumed) | disappearance half-time extending action in vivo compared with native motilin [1]: unable to be confirmed |
